Drawing on the NIST ThermoML archive (doi:10.1021/je034203p), this text covers mass density and viscosity for 18 molecules.

Numbers after ± are expanded uncertainties.

The conditions of data set [1]: 298.15 K, 101.3 kPa, Liquid; for viscosity: Capillary tube (Ostwald / Ubbelohde) method.
Data set [2] is described as follows: xn = mol fraction of the nth substance listed. The conditions noted are these: 298.15 K, 101.3 kPa, Liquid; for viscosity: Capillary tube (Ostwald / Ubbelohde) method.

One may read the mass density as mass per unit of volume. By viscosity is commonly meant the resistance of a fluid to flow. Regarding `CC(C)=O` [acetone], in data set [1], the mass density is listed as 780.8 ± 0.7 kg/m3 and the viscosity was 0.3121 ± 0.0066 mPa·s.

For `c1ccccc1` [benzene], in data set [1], the mass density is given as 869.7 ± 0.6 kg/m3 and the viscosity is listed as 0.608 ± 0.0078 mPa·s.

Regarding `CCCCO` [butan-1-ol], in data set [1], the mass density worked out at 806.3 ± 0.7 kg/m3 and the viscosity came to 2.538 ± 0.023 mPa·s.

As to `CCC(C)O` (stereo not given) [butan-2-ol], in data set [1], the mass density came out at 804.8 ± 0.7 kg/m3 and the viscosity stood at 3.103 ± 0.028 mPa·s.

For the molecule `CCC(C)=O` [butanone], in data set [1], the mass density was 797.4 ± 0.7 kg/m3 and the viscosity came out at 0.4011 ± 0.0069 mPa·s.

In the case of `CCO` [ethanol], in data set [1], the mass density amounted to 787.4 ± 0.7 kg/m3 and the viscosity came out at 1.112 ± 0.011 mPa·s.

Consider `CCOC(C)=O` [ethyl acetate], for which, in data set [1], the mass density was determined as 894 ± 0.6 kg/m3 and the viscosity turned out to be 0.4274 ± 0.007 mPa·s.

Take `CO` [methanol]: in data set [1], the mass density was found to be 788.1 ± 0.7 kg/m3 and the viscosity is 0.5482 ± 0.0075 mPa·s.

Regarding `COC(C)=O` [methyl ethanoate], in data set [1], the mass density is listed as 923.9 ± 0.6 kg/m3 and the viscosity is on record as 0.3711 ± 0.0068 mPa·s.

Take `CCCO` [propan-1-ol]: in data set [1], the mass density is 800 ± 0.7 kg/m3 and the viscosity was 1.954 ± 0.017 mPa·s.

`CC(C)O` [propan-2-ol]: in data set [1], the mass density came to 784.3 ± 0.7 kg/m3 and the viscosity amounted to 2.044 ± 0.018 mPa·s.

As for `ClC(Cl)=C(Cl)Cl` [tetrachloroethene], in data set [1], the mass density amounted to 1610.2 ± 1.6 kg/m3 and the viscosity stood at 0.8474 ± 0.0091 mPa·s.

For `ClC(Cl)(Cl)Cl` [tetrachloromethane], in data set [1], the mass density turned out to be 1586.1 ± 1.6 kg/m3 and the viscosity worked out at 0.9096 ± 0.0095 mPa·s.

Consider `Cc1ccccc1` [toluene], for which, in data set [1], the mass density is recorded as 860.5 ± 0.6 kg/m3 and the viscosity is listed as 0.5641 ± 0.0076 mPa·s.

On to `ClC=C(Cl)Cl` [trichloroethene], for which, in data set [1], the mass density is listed as 1455.7 ± 1.3 kg/m3 and the viscosity was 0.551 ± 0.0075 mPa·s.

In the case of `ClC=C(Cl)Cl` [trichloroethene] + Cc1ccccc1, the viscosity stood at 0.5592 ± 0.0076 mPa·s in data set [2] (x1 = 0.1166); 0.5535 ± 0.0075 mPa·s in data set [2] (x1 = 0.2291); 0.5498 ± 0.0075 mPa·s in data set [2] (x1 = 0.3367); 0.5452 ± 0.0075 mPa·s in data set [2] (x1 = 0.4417); 0.5432 ± 0.0075 mPa·s in data set [2] (x1 = 0.5426); 0.5445 ± 0.0075 mPa·s in data set [2] (x1 = 0.64). The viscosity in data set [2] (x1 = 0.7348) amounted to 0.5454 ± 0.0075 mPa·s; in data set [2] (x1 = 0.8257) it was 0.5477 ± 0.0075 mPa·s; in data set [2] (x1 = 0.9147) it was 0.5495 ± 0.0075 mPa·s; in data set [2] (x1 = 1), 0.551 ± 0.0075 mPa·s. For the same molecule, the mass density is recorded as 917.5 ± 0.6 kg/m3 in data set [2] (x1 = 0.1166); 975.6 ± 0.6 kg/m3 in data set [2] (x1 = 0.2291); 1033 ± 0.6 kg/m3 in data set [2] (x1 = 0.3367); 1090.9 ± 0.7 kg/m3 in data set [2] (x1 = 0.4417); 1149 ± 0.8 kg/m3 in data set [2] (x1 = 0.5426); 1210.5 ± 0.9 kg/m3 in data set [2] (x1 = 0.64). The mass density in data set [2] (x1 = 0.7348) came out at 1270.8 ± 1 kg/m3; in data set [2] (x1 = 0.8257), 1331.5 ± 1.1 kg/m3; in data set [2] (x1 = 0.9147), 1393.2 ± 1.2 kg/m3; in data set [2] (x1 = 1), 1455.7 ± 1.3 kg/m3.

Take `ClC=C(Cl)Cl` [trichloroethene] + ClC(Cl)(Cl)Cl: the viscosity in data set [2] (x1 = 0.1068) is on record as 0.8568 ± 0.0092 mPa·s; in data set [2] (x1 = 0.212) it was 0.8098 ± 0.0089 mPa·s; in data set [2] (x1 = 0.315), 0.7632 ± 0.0086 mPa·s; in data set [2] (x1 = 0.4171), 0.7186 ± 0.0084 mPa·s; in data set [2] (x1 = 0.5178), 0.6826 ± 0.0082 mPa·s; in data set [2] (x1 = 0.6175), 0.6511 ± 0.008 mPa·s. Further, the viscosity in data set [2] (x1 = 0.7152) is listed as 0.6226 ± 0.0079 mPa·s; in data set [2] (x1 = 0.8114) it was 0.5965 ± 0.0077 mPa·s; in data set [2] (x1 = 0.9064), 0.5727 ± 0.0076 mPa·s; in data set [2] (x1 = 1), 0.551 ± 0.0075 mPa·s. The mass density in data set [2] (x1 = 0.1068) was 1568.1 ± 1.5 kg/m3; in data set [2] (x1 = 0.212), 1552.3 ± 1.5 kg/m3; in data set [2] (x1 = 0.315) it was 1536.3 ± 1.5 kg/m3; in data set [2] (x1 = 0.4171), 1520.8 ± 1.4 kg/m3; in data set [2] (x1 = 0.5178), 1506.7 ± 1.4 kg/m3; in data set [2] (x1 = 0.6175), 1495.3 ± 1.4 kg/m3. The mass density was found to be 1484.6 ± 1.4 kg/m3 in data set [2] (x1 = 0.7152), 1475 ± 1.3 kg/m3 in data set [2] (x1 = 0.8114), 1464.6 ± 1.3 kg/m3 in data set [2] (x1 = 0.9064) and 1455.7 ± 1.3 kg/m3 in data set [2] (x1 = 1).

With `ClC=C(Cl)Cl` [trichloroethene] + c1ccccc1, the viscosity in data set [2] (x1 = 0.0997) is recorded as 0.5937 ± 0.0077 mPa·s; in data set [2] (x1 = 0.1995), 0.584 ± 0.0077 mPa·s; in data set [2] (x1 = 0.2988) it was 0.5761 ± 0.0077 mPa·s; in data set [2] (x1 = 0.3987) it was 0.5682 ± 0.0076 mPa·s; in data set [2] (x1 = 0.4986), 0.5621 ± 0.0076 mPa·s; in data set [2] (x1 = 0.5991), 0.5573 ± 0.0076 mPa·s. In addition, the viscosity in data set [2] (x1 = 0.6991) was 0.5573 ± 0.0076 mPa·s; in data set [2] (x1 = 0.7989), 0.5517 ± 0.0075 mPa·s; in data set [2] (x1 = 0.8998), 0.5499 ± 0.0075 mPa·s; in data set [2] (x1 = 1), 0.551 ± 0.0075 mPa·s. The mass density in data set [2] (x1 = 0.0997) is listed as 923.8 ± 0.6 kg/m3; in data set [2] (x1 = 0.1995), 981.7 ± 0.6 kg/m3; in data set [2] (x1 = 0.2988), 1037.2 ± 0.6 kg/m3; in data set [2] (x1 = 0.3987) it was 1094.6 ± 0.7 kg/m3; in data set [2] (x1 = 0.4986) it was 1152.3 ± 0.8 kg/m3; in data set [2] (x1 = 0.5991), 1211 ± 0.9 kg/m3. The mass density is 1269.8 ± 1 kg/m3 in data set [2] (x1 = 0.6991), 1330.3 ± 1.1 kg/m3 in data set [2] (x1 = 0.7989), 1391.9 ± 1.2 kg/m3 in data set [2] (x1 = 0.8998) and 1455.7 ± 1.3 kg/m3 in data set [2] (x1 = 1).
